Consider seven substances from publication PMC3608651, “A Broad Profile of Co-Dominant Epitopes Shapes the Peripheral Mycobacterium tuberculosis Specific CD8+ T-Cell Immune Response in South African Patients with Active Tuberculosis” (PLoS ONE, 2013).

Assay [1] deals with T1, HLA-A*24:02 (Homo sapiens, UniProt P04439, D101N/D140Y/D185E/E176V/E190D/F33S/G103R/G107R/I119L/I121M/I306V/K335N/L105A/L180Q/L300P/N151K/N90K/Q86E/Q94H/R106L/R138H/R89G/T104I/T345S/V100E/W191G/Y123F). The conditions noted are these: percent relative the binding of a positive control peptide, cited from earlier work.
Assay [2] concerns the target T1, HLA-A*24:02. The conditions noted are these: cited from earlier work.
Assay [3] deals with T1, HLA-A*24:02. As to conditions: cited from earlier work. The source holds these as a separate data set.
Assay [4] deals with T2, HLA-A*02:01 (Homo sapiens, UniProt P04439, D140Y/D185E/D98H/E176V/E277Q/G131W/G231S/I119V/I121R/I166T/I218V/L300P/L318F/N151K/N90K/P208A/P217A/Q86G/Q94H/R138H/R169H/T345S). In kind it is binding. The conditions noted are these: percent relative the binding of positive control peptide […]; plate-bound monomer 0.5 µg/ml; duplicated experiments; positive binder >40%.
The target of assay [5] is T1, HLA-A*24:02. In kind it is binding. The conditions noted are these: percent relative the binding of positive control peptide […]; duplicated experiments; positive binder >40%.
For assay [6], the target named is T3, HLA-A*30:01 (Homo sapiens, UniProt P04439, D140H/D185E/E176W/F33S/G80R/H175R/K168Q/R138E/R41S). The format is binding. The conditions noted are these: percent relative the binding of positive control peptide […]; duplicated experiments; positive binder >40%.
Assay [7] addresses T3, HLA-A*30:01. In words: affinity assay (ED50). In kind it is binding. As to conditions: peptide titrated 10−4 to 10−9 M.
The target of assay [8] is T3, HLA-A*30:01. Description: off-rate assay (t1/2). The conditions noted are these: time points 0-8 h. In kind it is binding.
Assay [9] addresses T4, HLA-A*30:02 (Homo sapiens, UniProt P04439, D101N/D140H/D185E/E176R/F33S/G80R/H175R/K168Q/Q94H/R138E/R41S/V100E). In kind it is binding. The conditions noted are these: percent relative the binding of positive control peptide […]; duplicated experiments; positive binder >40%.
Assay [10] addresses T5, HLA-A*68:01 (Homo sapiens, UniProt P04439, A269V/D185E/E176V/E277Q/E87N/F33Y/G231S/I121M/I166T/I218V/L180W/L300P/L318F/N151K/P208A/P217A/Q86R/R169H/T345S). In kind it is binding. As to conditions: duplicated experiments, positive binder >40%.
Assay [11] concerns the target T5, HLA-A*68:01. The format is binding.
The target in assay [12] is T5, HLA-A*68:01. In kind it is binding. As to conditions: time points 0-8 h.
A further assay has as its target HLA-B*07:02 (Homo sapiens, UniProt P01889). The format is binding. The conditions noted are these: percent relative the binding of positive control peptide […]; duplicated experiments; positive binder >40%.
Another assay has as its target HLA-B*58:01 (Homo sapiens, UniProt P01889, A329T/C349S/D201E/D98Y/E176V/E187L/E204Q/E69T/G107R/I218V/I90N/K202T/L105A/L119I/N104I/N87E/Q89R/Q94S/R106L/R155S/R180L/R86G/S101N/S121R/S35A/S48A/T118I/V127L/V306I/V36M/Y140S/Y91M). The format is binding. The conditions noted are these: percent relative the binding of positive control peptide […]; duplicated experiments; positive binder >40%.

For another assay, the target named is HLA-C*07:01 (Homo sapiens, UniProt P10321, K90N/S123Y). The format is binding. The conditions noted are these: percent relative the binding of positive control peptide […]; duplicated experiments; positive binder >40%.
Assay [13] concerns the target T2, HLA-A*02:01. As to conditions: percent relative the binding of a positive control peptide; wild-type epitopes marked *; cited from earlier work.
Assay [14] deals with T2, HLA-A*02:01. As to conditions: wild-type epitopes marked *; cited from earlier work.
Assay [15] addresses T2, HLA-A*02:01. The conditions noted are these: wild-type epitopes marked *; cited from earlier work. The source holds these as a separate data set.
The target of assay [16] is T4, HLA-A*30:02. As to conditions: percent relative the binding of a positive control peptide; wild-type epitopes marked **; cited from earlier work.
The target in assay [17] is T4, HLA-A*30:02. The conditions noted are these: wild-type epitopes marked **; cited from earlier work.
Assay [18] has as its target T4, HLA-A*30:02. The conditions noted are these: wild-type epitopes marked **; cited from earlier work. This is another data set of the same source.
The target in assay [19] is T4, HLA-A*30:02. In kind it is binding.
Assay [20] addresses T4, HLA-A*30:02. The format is binding. As to conditions: time points 0-8 h.
The mark [21] stands for this setting: percent relative the binding of positive control peptide […].

Like-named read-outs stand apart in the source and are kept apart here. Marks after values point to notes of the source that are not given here.

With GYAGTLQSL [Rv0288_20–28wt], the “Bind A*24:02” value at HLA-A*24:02 [1] ([…]) is 76* percent. Besides, on HLA-A*24:02 [2], the “Aff A*24:02 (ED50)” value was 0.3 µM. Further, on HLA-A*24:02 [3], the “O-rate A*24:02 (t1/2)” value is listed as 3.7 h.

NFVRSSNLK: the “Bind A*02:01” value at HLA-A*02:01 [4] is 3%. On HLA-A*24:02 [5], the “Bind A*24:02” value was determined as 0%. The “Bind A*30:01” value on HLA-A*30:01 [6] came to 101%. The “Aff A*30:01 (ED50)” value at HLA-A*30:01 [7] stood at 9E -07 M. For the same substance, the “O-rate A*30:01 (t1/2)” value on HLA-A*30:01 [8] stood at 0.4 h. Moreover, the “Bind A*30:02” value on HLA-A*30:02 [9] is listed as 0%. Further, at HLA-A*68:01 [10] (setting [21]), the “Bind A*68:01” value stood at 84%. Besides, on HLA-A*68:01 [11], the “Aff A*68:01 (ED50)” value came out at 3E -06 M. Besides, the “O-rate A*68:01 (t1/2)” value on HLA-A*68:01 [12] is listed as 0.2 h. Also, the “Bind B*07:02” value at HLA-B*07:02 is on record as 0%. Moreover, the “Bind B*58:01” value on HLA-B*58:01 was determined as 10%. Moreover, on HLA-C*07:01, the “Bind C*07:01” value is 0%.

Turning to AMLGHAGDM [Rv0288_10–18wt], on HLA-A*02:01 [13], the “Bind A*02:01” value is 46* percent. In addition, the “Aff A*02:01 (ED50)” value at HLA-A*02:01 [14] is 6 µM. Besides, the “O-rate A*02:01 (t1/2)” value on HLA-A*02:01 [15] is given as 1.7 h. Moreover, at HLA-A*24:02 [1] (wild-type epitopes marked *), the “Bind A*24:02” value is listed as 25* percent. For the same substance, the “Aff A*24:02 (ED50)” value on HLA-A*24:02 [2] (wild-type epitopes marked *) was 100 µM. Moreover, the “O-rate A*24:02 (t1/2)” value at HLA-A*24:02 [3] (wild-type epitopes marked *) was 3.1 h. Further, the “Bind A*30:02” value at HLA-A*30:02 [16] is 97** percent. Besides, the “Aff A*30:02 (ED50)” value at HLA-A*30:02 [17] was 0.05 µM. For the same substance, the “O-rate A*30:02 (t1/2)” value at HLA-A*30:02 [18] is 1.2 h.

Turning to MYNYPAMLG [Rv0288_5–13wt], the “Bind A*24:02” value on HLA-A*24:02 [1] (wild-type epitopes marked *) is 72* percent. Further, the “Aff A*24:02 (ED50)” value at HLA-A*24:02 [2] (wild-type epitopes marked *) is 0.6 µM. The “O-rate A*24:02 (t1/2)” value on HLA-A*24:02 [3] (wild-type epitopes marked *) is reported as 1.4 h. Besides, the “Bind A*30:02” value at HLA-A*30:02 [16] is 45** percent. Also, the “Aff A*30:02 (ED50)” value on HLA-A*30:02 [17] is 7 µM. Further, the “O-rate A*30:02 (t1/2)” value at HLA-A*30:02 [18] was 0.6 h.

Consider TLQSLGAEI [Rv0288_24–32wt], for which the “Bind A*02:01” value on HLA-A*02:01 [13] is given as 46* percent. For the same substance, on HLA-A*02:01 [14], the “Aff A*02:01 (ED50)” value is 3 µM. In addition, at HLA-A*02:01 [15], the “O-rate A*02:01 (t1/2)” value is recorded as 1.7 h. Further, the “Bind A*24:02” value at HLA-A*24:02 [1] (wild-type epitopes marked *) is 16* percent. In addition, the “Aff A*24:02 (ED50)” value at HLA-A*24:02 [2] (wild-type epitopes marked *) was 0.09 µM. Also, the “O-rate A*24:02 (t1/2)” value on HLA-A*24:02 [3] (wild-type epitopes marked *) is 39.8 h.

Turning to DLVRAYHAM [Rv0288_64–72wt], the “Bind A*68:01” value on HLA-A*68:01 [10] (percent relative the binding of positive control peptide KTGGPIYKR) was found to be 34%. On HLA-A*68:01 [11] (peptide titrated 10−4 to 10−9 M), the “Aff A*68:01 (ED50)” value is 0.0004 M. The “O-rate A*68:01 (t1/2)” value on HLA-A*68:01 [12] is 3.3 h. Also, on HLA-A*24:02 [1] (wild-type epitopes marked *), the “Bind A*24:02” value is listed as 31* percent. At HLA-A*24:02 [2] (wild-type epitopes marked *), the “Aff A*24:02 (ED50)” value was 2 µM. Besides, the “O-rate A*24:02 (t1/2)” value at HLA-A*24:02 [3] (wild-type epitopes marked *) is recorded as 2.9 h.

For the substance KLVANNT RL, the “Bind A*02:01” value on HLA-A*02:01 [4] amounted to 81%. Moreover, the “Bind A*24:02” value on HLA-A*24:02 [5] was determined as 73%. Moreover, on HLA-A*30:01 [6], the “Bind A*30:01” value came to 60%. For the same substance, at HLA-A*30:01 [7], the “Aff A*30:01 (ED50)” value is reported as 2E -08 M. Further, the “O-rate A*30:01 (t1/2)” value at HLA-A*30:01 [8] is reported as 0.7 h. Moreover, at HLA-A*30:02 [9], the “Bind A*30:02” value worked out at 167%. The “Aff A*30:02 (ED50)” value at HLA-A*30:02 [19] turned out to be 1E -07 M. Moreover, the “O-rate A*30:02 (t1/2)” value at HLA-A*30:02 [20] came out at 2.2 h. Also, at HLA-A*68:01 [10] (setting [21]), the “Bind A*68:01” value was 18%. For the same substance, the “Bind B*07:02” value at HLA-B*07:02 was determined as 43%. At HLA-B*58:01, the “Bind B*58:01” value was 40%. Besides, on HLA-C*07:01, the “Bind C*07:01” value turned out to be 13%.
